{"source": "patent EP2951180B1", "about": "“2,6,7,8 SUBSTITUTED PURINES AS HDM2 INHIBITORS” (Merck Sharp & Dohme Corp., priority 2013, dated 2014)", "molecular_target": "T1, HDM2 (Homo sapiens, UniProt Q00987)", "T1 construct": "Thioredoxin (N); made in house; host or cells: E. coli strain BL21(DE3)Rosetta", "T1 sequence (Q00987 17-125)": "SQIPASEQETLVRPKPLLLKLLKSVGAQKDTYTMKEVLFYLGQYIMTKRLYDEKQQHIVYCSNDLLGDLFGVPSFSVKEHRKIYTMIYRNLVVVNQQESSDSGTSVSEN", "assay": "HDM2 FRET assay (inhibition of binding of FITC labeled p53-pocket peptide to HDM2)", "settings": "read-out: FRET IC50", "outline": "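Compounds were tested in 10-point serial dilution against 0.5 nM recombinant HDM2 binding 3 nM fluorescein-labeled p53-pocket peptide. Detection used 0.25 nM terbium cryptate anti-6xHis antibody in PBS buffer containing 0.01% BSA and 0.01% Tween-20.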", "key": {"[1]": {"settings": "0.5 nM HDM2 (residues 17 to 125), 3nM peptide, two hour incubation at room temperature"}}, "note": "Where two headings read alike, the source gives them in different places."}
{"compound": "Cc1cccc(-c2nc3nc(C(=O)O)nc(N[C@@H](C)C(C)(C)C)c3n2Cc2ccc(C(F)(F)F)cc2)c1", "note": "[Example 6.41, 8-(3-methylphenyl)-7-[4-(trifluoromethyl)benzyl]-6-{[(1S)-1,2,2-trimethylpropyl]amino}-7H-purine-2-carboxylic acid]", "values": [{"measurement": "IC50", "setting": "Table 6", "value": 638, "unit": "nM"}]}
{"compound": "Cc1cccc(-c2nc(C(=O)O)nc3nc(-c4cc(C(C)C)ccn4)n(C[C@H]4CC[C@H](C)CC4)c23)c1", "note": "[Example 16.14, 7-[(trans-4-methylcyclohexyl)methyl]-8-[4-(1-methylethyl)pyridin-2-yl]-6-(3-methylphenyl)-7H-purine-2-carboxylic acid]", "values": [{"measurement": "IC50", "setting": "[1]", "value": 35.5, "unit": "nM"}]}
{"compound": "CC[C@H]1CC[C@H](Cn2c(-c3cc(C(C)C)ccn3)nc3nc(-c4noc(=O)[nH]4)nc(N[C@H](C)C4CCC4)c32)CC1", "note": "[Example 18.20, 3-(6-{[(1R)-1-cyclobutylethyl]amino}-7-[(trans-4-ethylcyclohexyl)methyl]-8-[4-(1-methylethyl)pyridin-2-yl]-7H-purin-2-yl)-1,2,4-oxadiazol-5(4H)-one]", "values": [{"measurement": "IC50", "setting": "Table 18", "value": 15.7, "unit": "nM"}]}
{"compound": "Cc1nc2nc(C(=O)O)nc(N[C@H](C)C3CCC3)c2n1C[C@H]1CC[C@H](C)CC1", "note": "[Example 21.9, 6-{[(1R)-1-cyclobutylethyl]amino}-8-methyl-7-[(trans-4-methylcyclohexyl)methyl]-7H-purine-2-carboxylic acid]", "values": [{"measurement": "IC50", "setting": "Table 21", "value": 101, "unit": "nM"}]}
{"compound": "C[C@@H](Nc1nc(C(=O)O)nc2nc(-c3ccc4sccc4c3)n(Cc3ccc(C(F)(F)F)cc3)c12)C1CCC1", "note": "[Example 6.14, 8-(1-benzothiophen-5-yl)-6-{[(1R)-1-cyclobutylethyl]amino}-7-[4-(trifluoromethyl)benzyl]-7H-purine-2-carboxylic acid]", "values": [{"measurement": "IC50", "setting": "Table 6", "value": 35.3, "unit": "nM"}]}
{"compound": "COc1ccc(C)cc1-c1nc2nc(C(=O)O)nc(N[C@H](C)C3CC(F)(F)C3)c2n1Cc1ccc(C(F)(F)F)cc1", "note": "[Example 7.17, 6-{[(1R)-1-(3,3-difluorocyclobutyl)ethyl]amino}-8-(2-methoxy-5-methylphenyl)-7-[4-(trifluoromethyl)benzyl]-7H-purine-2-carboxylic acid]", "values": [{"measurement": "IC50", "setting": "Table 7", "value": 58.9, "unit": "nM"}]}
{"compound": "C[C@@H](Nc1nc(-c2noc(=O)[nH]2)nc2nc(C3(c4ccccc4)CC3)n(C[C@H]3CC[C@H](C)CC3)c12)C1CCC1", "note": "[Example 20.5, 3-[6-{[(1R)-1-cyclobutylethyl]amino}-7-[(trans-4-methylcyclohexyl)methyl]-8-(1-phenylcyclopropyl)-7H-purin-2-yl]-1,2,4-oxadiazol-5(4H)-one]", "values": [{"measurement": "IC50", "setting": "Table 20", "value": 4.98, "unit": "nM"}]}
{"compound": "C[C@H]1CC[C@H](Cn2c(N3CCOC[C@H]3c3ccccc3)nc3nc(-c4noc(=O)[nH]4)nc(-c4cc(Cl)ccc4F)c32)CC1", "note": "[Example 16.25, 3-{6-(5-chloro-2-fluorophenyl)-7-[(trans-4-methylcyclohexyl)methyl]-8-[(3R)-3-phenylmorpholin-4-yl]-7H-purin-2-yl} -1,2,4-oxadiazol-5(4H)-one]", "values": [{"measurement": "IC50", "setting": "[1]", "value": 1.63, "unit": "nM"}]}
{"compound": "COC1(c2nc3nc(-c4noc(=O)[nH]4)nc(-c4cncc(Cl)c4)c3n2C[C@H]2CC[C@H](C)CC2)CCCC1", "note": "[Example 23.77, 3-{6-(5-chloropyridin-3-yl)-8-(1-methoxycyclopentyl)-7-[(trans-4-methylcyclohexyl)methyl] -7H-purin-2-yl}-1,2,4-oxadiazol-5(4H)-one]", "values": [{"measurement": "IC50", "setting": "Table 23", "value": 8.06, "unit": "nM"}]}
{"compound": "C[C@@H](Nc1nc(-c2noc(=O)[nH]2)nc2nc(C(=O)C(C)(C)C)n(C[C@H]3CC[C@H](C)CC3)c12)C1CCC1", "note": "[Example 22.1, 3-(6-{[(1R)-1-cyclobutylethyl]amino}-8-(2,2-dimethylpropanoyl)-7-[(trans-4-methylcyclohexyl)methyl]-7H-purin-2-yl)-1,2,4-oxadiazol-5(4H)-one]", "values": [{"measurement": "IC50", "setting": "Table 22", "value": 4.65, "unit": "nM"}]}
{"compound": "Cc1cccc(-c2nc3nc(C(=O)O)nc(N[C@H](CCCO)C4CCC4)c3n2Cc2ccc(C(F)(F)F)cc2)c1", "note": "[Example 7.2, 6-{[(1R)-1-cyclobutyl-4-hydroxybutyl]amino}-8-(3-methylphenyl)-7-[4-(trifluoromethyl)benzyl]-7H-purine-2-carboxylic acid]", "values": [{"measurement": "IC50", "setting": "Table 7", "value": 41, "unit": "nM"}]}
{"compound": "C[C@@H](Nc1nc(C(=O)O)nc2nc(C3(c4ccccc4)CC3)n(Cc3ccc(C(F)(F)F)cc3)c12)C1CCC1", "note": "[Example 20.3, 6-{[(1R)-1-cyclobutylethyl]amino}-8-(1-phenylcyclopropyl)-7-[4-(trifluoromethyl)benzyl]-7H-purine-2-carboxylic acid]", "values": [{"measurement": "IC50", "setting": "Table 20", "value": 8.57, "unit": "nM"}]}
{"compound": "CCCN(C)c1nc2nc(-c3noc(=O)[nH]3)nc(N[C@H](C)C3CCC3)c2n1C[C@H]1CC[C@H](C)CC1", "note": "[Example 11.44, 3-(6-{[(1R)-1-cyclobutylethyl]amino}-7-[(trans-4-methylcyclohexyl)methyl]-8-[methyl(propyl)amino]-7H-purin-2-yl)-1,2,4-oxadiazol-5(2H)-one]", "values": [{"measurement": "IC50", "setting": "Table 11", "value": 9.97, "unit": "nM"}]}
{"compound": "Cc1cccc(-c2nc3nc(C(=O)O)nc(NC4CCOCC4)c3n2Cc2ccc(C(F)(F)F)cc2)c1", "note": "[Example 6.43, 8-(3-methylphenyl)-6-(tetrahydro-2H-pyran-4-ylamino)-7-[4-(trifluoromethyl)benzyl]-7H-purine-2-carboxylic acid]", "values": [{"measurement": "IC50", "setting": "Table 6", "value": 1710, "unit": "nM"}]}
{"compound": "C[C@@H](Nc1nc(-c2noc(=O)[nH]2)nc2nc(C3CCC3)n(C[C@H]3CC[C@H](C)CC3)c12)C1CCC1", "note": "[Example 22.70, 3-(8-cyclobutyl-6-{[(1R)-1-cyclobutylethyl]amino}-7-[(trans-4-methylcyclohexyl)methyl]-7H-purin-2-yl)-1,2,4-oxadiazol-5(4H)-one]", "values": [{"measurement": "IC50", "setting": "Table 22", "value": 15.1, "unit": "nM"}]}
{"compound": "Cc1cccc(-c2nc3nc(C(=O)O)nc(NC4CCC(CNC(=O)OC(C)(C)C)CC4)c3n2Cc2ccc(C(F)(F)F)cc2)c1", "note": "(stereo not drawn) [Example 6.35, 6-[(4-{[(tert-butoxycarbonyl)amino]methyl}cyclohexyl)amino]-8-(3-methylphenyl)-7-[4-(trifluoromethyl)benzyl]-7H-purine-2-carboxylic acid]", "values": [{"measurement": "IC50", "setting": "Table 6", "value": 2340, "unit": "nM"}]}
{"compound": "CC(C)c1ccnc(-c2nc3nc(C(=O)O)nc(N[C@H](C)C4CCC4)c3n2C[C@H]2CC[C@H](C(F)(F)F)CC2)c1", "note": "[Example 18.1, 6-(((R)-1-cyclobutylethyl)amino)-8-(4-isopropylpyridin-2-yl)-7-((trans-4-(trifluoromethyl)cyclohexyl)methyl)-7H-purine-2-carboxylic acid]", "values": [{"measurement": "IC50", "setting": "Table 18", "value": 3.46, "unit": "nM"}]}
{"compound": "C[C@H]1CC[C@H](Cn2c(N3CCOC[C@H]3C(N)=O)nc3nc(-c4noc(=O)[nH]4)nc(-c4cccc(Cl)c4)c32)CC1", "note": "[Example 16.117, (3 S)-4-[6-(3-chlorophenyl)-7-[(trans-4-methylcyclohexyl)methyl]-2-(5-oxo-4,5-dihydro-1,2,4-oxadiazol-3-yl)-7H-purin-8-yl]morpholine-3-carboxamide]", "values": [{"measurement": "IC50", "setting": "[1]", "value": 105, "unit": "nM"}]}
{"compound": "C[C@@H](Nc1nc(-c2nnc[nH]2)nc2nc(N3CCOC[C@H]3c3ccccc3)n(C[C@H]3CC[C@H](C)CC3)c12)C1CCC1", "note": "[Example 12.16, N-[(1R)-1-cyclobutylethyl]-7-[(trans-4-methylcyclohexyl)methyl]-8-[(3R)-3-phenylmorpholin-4-yl]-2-(4H-1,2,4-triazol-3-yl)-7H-purin-6-amine]", "values": [{"measurement": "IC50", "setting": "[1]", "value": 10.8, "unit": "nM"}]}
{"compound": "Cc1cccc(-c2nc3nc(C(=O)O)nc(N(C)CC(C)(C)C)c3n2Cc2ccc(C(F)(F)F)cc2)c1", "note": "[Example 6.82, 6-[(2,2-dimethylpropyl)(methyl)amino]-8-(3-methylphenyl)-7-[4-(trifluoromethyl)benzyl]-7H-purine-2-carboxylic acid]", "values": [{"measurement": "IC50", "setting": "Table 6", "value": 899, "unit": "nM"}]}
{"compound": "CC1CCN(c2nc3nc(-c4noc(=O)[nH]4)nc(N[C@H](C)C4CCC4)c3n2C[C@H]2CC[C@H](C)CC2)C(c2ccccc2)C1", "note": "(single isomer, unassigned) [Example 11.68]", "values": [{"measurement": "IC50", "setting": "Table 11", "value": 2.04, "unit": "nM"}]}
{"compound": "CC[C@H]1CC[C@H](Cn2c(N3CCCCC3)nc3nc(C(=O)O)nc(N[C@H](C)C4CCC4)c32)CC1", "note": "[Example 18.18, 6-{[(1R)-1-cyclobutylethyl]amino}-7-[(trans-4-ethylcyclohexyl)methyl]-8-piperidin-1-yl-7H-purine-2-carboxylic acid]", "values": [{"measurement": "IC50", "setting": "Table 18", "value": 8.6, "unit": "nM"}]}
{"compound": "C[C@@H](Nc1nc(C(=O)O)nc2nc(C3CCCCN3C)n(Cc3ccc(C(F)(F)F)cc3)c12)C1CCC1", "note": "(stereo partly drawn) [Example 10.23, 6-(((R)-1-Cyclobutylethyl)amino)-8-(1-methylpiperidin-2-yl)-7-(4-(trifluoromethyl)benzyl)-7H-purine-2-carboxylic acid]", "values": [{"measurement": "IC50", "setting": "Table 10", "value": 48, "unit": "nM"}]}
{"compound": "C[C@@H]1COCCN1c1nc2nc(C(=O)O)nc(N[C@H](C)C3CCC3)c2n1Cc1ccc(C(F)(F)F)cc1", "note": "[Example 9.35]", "values": [{"measurement": "IC50", "setting": "Table 9", "value": 7.17, "unit": "nM"}]}
{"compound": "CC(Nc1nc2nc(C(=O)O)nc(N[C@H](C)C3CCC3)c2n1Cc1ccc(C(F)(F)F)cc1)c1ccccn1", "note": "(stereo partly drawn) [Example 9.31, 6-{[(1R)-1-cyclobutylethyl]amino}-8-[(1-pyridin-2-ylethyl)amino]-7-[4-(trifluoromethyl)benzyl]-7H-purine-2-carboxylic acid]", "values": [{"measurement": "IC50", "setting": "Table 9", "value": 0.526, "unit": "nM"}]}
{"compound": "C[C@H]1CC[C@H](Cn2c(N3CCO[C@@H]4CCC[C@H]43)nc3nc(-c4noc(=O)[nH]4)nc(-c4cccc(Cl)c4)c32)CC1", "note": "[Example 16.82, 3-{6-(3-chlorophenyl)-8-[(4aR,7aR)-hexahydrocyclopenta [b][1,4]oxazin-4(4aH)-yl]-7-[(trans-4-methylcyclohexyl)methyl]-7H-purin-2-yl}-1,2,4-oxadiazol-5(4H)-one]", "values": [{"measurement": "IC50", "setting": "[1]", "value": 1.1, "unit": "nM"}]}
{"compound": "C[C@@H](Nc1nc(-c2noc(=O)[nH]2)nc2nc(-c3cc(C(C)(C)O)ccn3)n(C[C@H]3CC[C@H](C)CC3)c12)C1CCC1", "note": "[Example 15.23, 3-(6-{[(1R)-1-cyclobutylethyl]amino}-8-[4-(1-hydroxy-1-methylethyl)pyridin-2-yl]-7-[(trans-4-methylcyclohexyl)methyl]-7H-purin-2-yl)-1 ,2,4-oxadiazol-5(4H)-one]", "values": [{"measurement": "IC50", "setting": "[1]", "value": 4.75, "unit": "nM"}]}
